Structures can show the parent of a compound that is named as a salt.
Legend:
[1] = test system: Helicobacter pylori-induced ulcers; experiment: Helicobacter pylori-induced gastric ulceration in mice; type: in vivo, male CD-1 (Crl.) derived mice; details: for Ulceration Score Total: N=5 mice, day 8
Description: MIC-31 (Citronellol) and MIC-32 (Geraniol) were evaluated for their abilities to protect mice from the Helicobacter pylori-induced ulcers. MIC-31 was dosed at 50, 25, 12.5 and 6.25 mg/kg, P.O., as well as at 25 and 12.5 mg/kg, I.P. MIC-32 was dosed at 25 and 12.5 mg/kg, P.O. These dosing regimes were administered twice daily for 7 consecutive days beginning with the first dose given at one hour after Helicobacter pylori inoculation. On day 8, Gastric ulceration was scored as 0, 1, 2 or 3 (3 being most severe relative to vehicle control) according to the degree of hemorrhage and severity of lesions on the gastric mucosa. MIC-31 and MIC-32 were dissolved in 2% Tween 80 for oral (P.O.) and in 2% Tween 80/0.9% NaCl for intraperitoneal (I.P.) administration. MIC-31 at doses of 50, 25, 12.5, 6.25 mg/kg (P.O.) and 25, 12.5 mg/kg (I.P.), as well as MIC-32 at 25 and 12.5 mg/kg (P.O.), were administered to test animals twice daily for 7 consecutive days. The dosing volume was 10 ml/kg. Male CD-1 (Crl.) derived mice weighing 24±2 g were provided. Space allocation for 10 animals was 29×18×13 cm. Mice were housed in cages and maintained in a controlled temperature (22° C.-23° C.) and humidity (70%-80%) environment with 12 hours light dark cycles for at least one week prior to use. Free access to standard lab chow for mice and tap water was granted. Groups of 5 male CD-1 (Crl.) derived mice weighing 24±2 g, were fasted for 18 hours prior to intragastric inoculation of Helicobacter pylori in suspension at 9.5×10^9 CFU/0.4 ml/mouse. […] MIC-31 was also dosed intraperitoneally at 25 mg/kg and 12.5 mg/kg, starting also one hour after the Helicobacter pylori inoculation, twice daily for 7 consecutive days. Omeprazole 1 mg/kg and Clarithromycin 10 mg/kg, in combination, were used as positive controls and administered orally to test animals once daily for 7 consecutive days under the same treatment regime. Eight days after infection, all animals were fasted overnight and sacrificed. Each stomach was dissected along the greater curvature. Gastric ulceration was scored at four levels according to the degree of hemorrhage and severity of ulcerative lesions: 0=normal appearance, 1=mild red spots, 2=moderate red spots and/or hemorrhage spots, 3=marked hemorrhage spots. Reduction of ulceration score by 50 percent or more (≧50%) relative to vehicle control score values is considered significant. In addition, blood of each animal was collected from the retro-orbital sinus on day 8 and plasma sample was kept frozen at −80° C. until returned to the sponsor. Tissues of stomach and intestines were removed by surgical excision and immersed in 10% Neutral-Buffer formalin for histopathological examination.

[2] = test system: gastric injury induced by ethanol; experiment: Gastric ulcers induced by absolute ethanol in rats; type: in vivo, Sprague-Dawley derived male rats; details: for Average (gastric ulceration score 0-4): 30 min before absolute ethanol 1 ml/rat, scored 1 h later, 5 rats
Excerpt: The purpose of this study was to investigate the effect of MIC31 (Citronellol) and its analogues/derivatives on gastric injury induced by ethanol in the rat. Gastric damage was produced by oral administration of absolute ethanol to rats. The severity of the ethanol-induced gastric damage varied considerably within the vehicle-treated group of rats which served as the negative controls.
Animals studied in this example were Sprague-Dawley derived Male Rats from Yung-Min Medical University Laboratory Animal Center. The age of these rats are 7 weeks old. Each group has 5 rats, and their body weight at arrival was 180±10 gm. Upon arrival, heath status of rats will undergo a minimum of one week acclimation period prior to the start of the experiment. At the first day of study, body weights are measured and the animals are grouped according to experiment design. The environmental conditions are listed below:
(10 ml/kg) to a group of 5 Sprague-Dawley derived male rats overnight fasted weighing 180±10 gm at 30 minutes before absolute ethanol challenge (1 ml/rat, P.O.). One hour later, the animals are sacrificed and the stomachs are opened along the greater curvature. Gastric ulceration is scored for degree of hemorrhage and severity of ulcerative lesions as follows: 0=no hyperemia or lesion […], 1=hyperemia, 2=one or two slight lesions, 3=more than two slight lesions, 4=more than two lesions or severe lesions. Reduction of concurrent control score values by 50 percent or more (≧50%) is considered significant. During the experimental phase, body weight will be documented.

[3] = PO 12.5 mg/kg x 2 x 7 days, score 0-3 each
[4] = PO 25 mg/kg x 2 x 7 days, score 0-3 each
[5] = 30 mg/kg P.O., 30 min before absolute ethanol, >=50% considered significant
[6] = 100 mg/kg P.O., 30 min before absolute ethanol, >=50% considered significant
[7] = Rattus norvegicus, po, 1 h, 30 mg/kg P.O., 30 min before absolute ethanol, >=50% considered significant, read-out: Reduction (%) of ulceration score vs concurrent vehicle control
[8] = Rattus norvegicus, po, 1 h, 100 mg/kg P.O., 30 min before absolute ethanol, >=50% considered significant, read-out: Reduction (%) of ulceration score vs concurrent vehicle control
[9] = Rattus norvegicus, po, 1 h, 300 mg/kg P.O., 30 min before absolute ethanol, >=50% considered significant, read-out: Reduction (%) of ulceration score vs concurrent vehicle control
[10] = 300 mg/kg P.O., 30 min before absolute ethanol, >=50% considered significant

Structure (SMILES)	Average (gastric ulceration score 0-4) ([2]; 30 mg/kg P.O.)	Reduction (%) of ulceration score vs concurrent vehicle control [2, 5] [%]	Average (gastric ulceration score 0-4) ([2]; 100 mg/kg P.O.)	Reduction (%) of ulceration score vs concurrent vehicle control [2, 6] [%]	Average (gastric ulceration score 0-4) ([2]; 300 mg/kg P.O.)	inhibition in vivo at 30 mg/kg [2, 7] [%]	inhibition in vivo at 100 mg/kg [2, 8] [%]	inhibition in vivo at 300 mg/kg [2, 9] [%]	further results
CC(C)=CCC/C(C)=C/CO [MIC-32, Geraniol]									Ulceration Score Total [1, 3]: 13; % Inhibition of ulceration score vs vehicle ([1]; PO 12.5 mg/kg x 2 x 7 days, >=50% significant (in parentheses)): 13%; Ulceration Score Total [1, 4]: 11; % Inhibition of ulceration score vs vehicle ([1]; PO 25 mg/kg x 2 x 7 days, >=50% significant (in parentheses)): 27%
CC(C)=CCCC(C)CCO (stereo not shown) [MIC-31, Citronellol]	1	72	0.4	89					Ulceration Score Total ([1]; IP 12.5 mg/kg x 2 x 7 days): 2; Ulceration Score Total ([1]; IP 25 mg/kg x 2 x 7 days): 8; % Inhibition of ulceration score vs vehicle ([1]; IP 25 mg/kg x 2 x 7 days, >=50% significant): 47%; Ulceration Score Total ([1]; PO 6.25 mg/kg x 2 x 7 days, score 0-3 each): 11; % Inhibition of ulceration score vs vehicle ([1]; PO 6.25 mg/kg x 2 x 7 days, >=50% significant (in parentheses)): 27%; Ulceration Score Total [1, 3]: 7; Ulceration Score Total [1, 4]: 3; Ulceration Score Total ([1]; PO 50 mg/kg x 2 x 7 days, score 0-3 each): 2; Protecting effect on stomach after challenge with absolute ethanol (in words) ([2]; single oral dose 30 min before alcohol challenge, rats): can inhibit the severity degree of hemorrhage and ulcerative lesions in stomach
CC(C)=CCCC(C)CC(=O)O (stereo not shown) [MIC-35, Citronellic acid]	2		1.6,		1.4	38	50	56	
COc1ccc2[nH]c([S+]([O-])Cc3ncc(C)c(OC)c3C)nc2c1 (stereo not shown) [Omeprazole, reference compound]									Average (gastric ulceration score 0-4) ([2]; 50 mg/kg P.O.): 2.2; inhibition in vivo at 50 mg/kg ([2]; Rattus norvegicus, po, 1 h, 50 mg/kg P.O., 30 min before absolute ethanol, >=50% considered significant, read-out: Reduction (%) of ulceration score vs concurrent vehicle control): 39%
CC(C)=CCC[C@H](C)CCBr [MIC-36, (s)-(+)-Citronellyl bromide]	2		1.4		1.6	33	53	47	
CC(C)=CCCC(C)CCOC=O (stereo not shown) [MIC-41, Citronellyl formate]	3.2		1		1.4	0	69	56	
C/C=C(\C)C(=O)OCCC(C)CCC=C(C)C (stereo not shown) [MIC-44, Citronellyl tiglate]	2.8		1.8		2.2	22	50	39	
CC(C)=CCCC(C)CCOC(=O)C(C)C (stereo not shown) [MIC-38, Citronellyl isobutryrate]	3.2	0	1.8	40	1.2				Reduction (%) of ulceration score vs concurrent vehicle control [2, 10]: 60%
CC(C)=CCC[C@@H](C)CCBr [MIC-43, (R)-(−)-Citronellyl bromide]	2.4		1.6		1.6	29	53	53	
CC(C)=CCCC(C)CCO (stereo not shown) [MIC-42, Citronellol]	1.6	53	0.8	76	1.6				Reduction (%) of ulceration score vs concurrent vehicle control [2, 10]: 53%
CC(=O)OCCC(C)CCC=C(C)C (stereo not shown) [MIC-39, Citronellyl acetate]	2.4		0.8		0.8	20	73	73	
CCC(=O)OCCC(C)CCC=C(C)C (stereo not shown) [MIC-40, Citronellyl propionate]	3.4		2.8		1.2	6	22	67	
CC(C)=CCCC(C)CCO (stereo not drawn) [MIC-45, (−)-β-Citronellol]	2.6	28	1.2	67	1.6				Reduction (%) of ulceration score vs concurrent vehicle control [2, 10]: 83%
